How the values were obtained:
[1] = molecular target: T1, FLT3-D835Y (Homo sapiens, UniProt P36888, D835Y); experiment: FLT3-D835Y biochemical kinase assay (AlphaScreen)
T1 construct: purchased Invitrogen PV3967
T1 sequence (P36888 27-993 D835Y): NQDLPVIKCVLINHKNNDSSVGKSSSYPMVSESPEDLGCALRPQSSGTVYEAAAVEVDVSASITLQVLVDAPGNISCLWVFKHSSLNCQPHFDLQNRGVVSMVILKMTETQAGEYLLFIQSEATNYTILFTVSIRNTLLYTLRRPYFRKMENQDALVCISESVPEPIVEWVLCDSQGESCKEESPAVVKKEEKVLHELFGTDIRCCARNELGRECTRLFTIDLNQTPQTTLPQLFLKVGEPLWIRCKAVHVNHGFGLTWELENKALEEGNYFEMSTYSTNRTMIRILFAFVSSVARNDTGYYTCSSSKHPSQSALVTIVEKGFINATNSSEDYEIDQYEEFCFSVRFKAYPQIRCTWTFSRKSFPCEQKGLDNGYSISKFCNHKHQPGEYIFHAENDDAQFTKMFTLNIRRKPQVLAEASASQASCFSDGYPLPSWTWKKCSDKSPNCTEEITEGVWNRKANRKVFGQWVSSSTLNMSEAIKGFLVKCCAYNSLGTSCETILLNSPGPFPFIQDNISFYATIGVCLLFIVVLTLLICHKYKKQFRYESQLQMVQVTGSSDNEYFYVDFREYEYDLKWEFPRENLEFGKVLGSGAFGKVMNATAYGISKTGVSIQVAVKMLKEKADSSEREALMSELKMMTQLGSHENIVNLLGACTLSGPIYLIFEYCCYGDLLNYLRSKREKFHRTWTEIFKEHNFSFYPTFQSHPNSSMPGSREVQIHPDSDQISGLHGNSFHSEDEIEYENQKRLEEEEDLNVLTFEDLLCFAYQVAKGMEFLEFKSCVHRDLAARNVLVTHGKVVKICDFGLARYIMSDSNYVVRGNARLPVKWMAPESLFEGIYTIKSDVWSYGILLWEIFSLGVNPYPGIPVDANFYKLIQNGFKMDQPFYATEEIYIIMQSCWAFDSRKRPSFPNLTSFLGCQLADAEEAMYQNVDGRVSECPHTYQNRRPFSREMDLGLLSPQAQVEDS
Procedure, shortened: (§1)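 Recombinant FLT3 mutant kinases phosphorylate biotin-poly(Glu4-Tyr) peptide (30 nM) at 10 μM ATP for D835Y or 100 μM for ITD. Phosphorylation detected by AlphaScreen: streptavidin donor beads (20 min) then anti-phosphotyrosine PY20 acceptor beads (60 min, RT), signal at 580 nm; inhibition lowers signal.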

[2] = molecular target: T2, FLT3-ITD (Homo sapiens, UniProt P36888); experiment: FLT3-ITD biochemical kinase assay (AlphaScreen)
T2 construct: FLT3-ITD; Invitrogen #PV6190
T2 sequence (P36888 1-993): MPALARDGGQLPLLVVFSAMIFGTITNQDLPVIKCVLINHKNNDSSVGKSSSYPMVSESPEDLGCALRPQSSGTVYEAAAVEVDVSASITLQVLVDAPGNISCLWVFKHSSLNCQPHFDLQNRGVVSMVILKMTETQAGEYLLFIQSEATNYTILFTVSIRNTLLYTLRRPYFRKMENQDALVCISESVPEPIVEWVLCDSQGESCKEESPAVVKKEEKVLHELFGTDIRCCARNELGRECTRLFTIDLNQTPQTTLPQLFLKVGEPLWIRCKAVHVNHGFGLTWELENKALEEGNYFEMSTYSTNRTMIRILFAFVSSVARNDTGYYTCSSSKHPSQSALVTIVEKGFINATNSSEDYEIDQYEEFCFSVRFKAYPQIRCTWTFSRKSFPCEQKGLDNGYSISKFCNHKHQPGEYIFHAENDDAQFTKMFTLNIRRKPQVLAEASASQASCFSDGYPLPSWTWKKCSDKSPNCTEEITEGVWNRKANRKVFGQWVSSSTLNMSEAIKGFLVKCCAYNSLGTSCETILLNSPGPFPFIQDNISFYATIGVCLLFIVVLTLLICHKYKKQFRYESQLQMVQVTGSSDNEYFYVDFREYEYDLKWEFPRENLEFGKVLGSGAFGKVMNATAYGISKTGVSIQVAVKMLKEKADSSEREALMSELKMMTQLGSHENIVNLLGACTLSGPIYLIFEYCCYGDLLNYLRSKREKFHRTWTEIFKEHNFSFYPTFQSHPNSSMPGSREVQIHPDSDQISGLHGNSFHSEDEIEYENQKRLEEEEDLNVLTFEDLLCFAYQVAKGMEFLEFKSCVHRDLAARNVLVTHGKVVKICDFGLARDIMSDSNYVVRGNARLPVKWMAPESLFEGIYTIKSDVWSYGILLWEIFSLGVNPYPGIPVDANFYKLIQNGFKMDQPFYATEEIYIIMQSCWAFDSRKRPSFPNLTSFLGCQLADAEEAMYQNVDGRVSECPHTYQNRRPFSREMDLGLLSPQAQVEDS
Procedure, shortened: as §1

Row | IC50 [1] | IC50 [2] | Compound
1 | 0.0001 to 1 µM | 0.0001 to 1 µM | COc1ncc(-c2cnc3[nH]cc(-c4ccc5ncn(C(C)C)c5c4)c3c2)cn1 [P-269, 1-isopropyl-6-[5-(2-methoxypyrimidin-5-yl)-1H-pyrrolo[2,3-b]pyridin-3-yl]benzimidazole]
2 | 0.0001 to 1 µM | 0.0001 to 1 µM | COc1ncc(-c2cnc3[nH]cc(-c4ccc5ncn(C6CCCNC6)c5c4)c3n2)cn1 (stereo not shown) [P-264, 2-(2-methoxypyrimidin-5-yl)-7-[3-(3-piperidyl)benzimidazol-5-yl]-5H-pyrrolo[2,3-b]pyrazine]
3 | 0.0001 to 1 µM | 0.0001 to 1 µM | c1cc(-c2cnc3[nH]cc(-c4ccc5ncn(C6CCCNC6)c5c4)c3n2)cc(N2CCOCC2)n1 (stereo not shown) [P-262, 4-[4-[7-[3-(3-piperidyl)benzimidazol-5-yl]-5H-pyrrolo[2,3-b]pyrazin-2-yl]-2-pyridyl]morpholine]
4 | 0.0001 to 1 µM | 0.0001 to 1 µM | FC(F)(F)Cn1cc(-c2cnc3[nH]cc(-c4ccc5ncn(C6CCCNC6)c5c4)c3n2)cn1 (stereo not shown) [P-258, 7-[3-(3-piperidyl)benzimidazol-5-yl]-2-[1-(2,2,2-trifluoroethyl)pyrazol-4-yl]-5H-pyrrolo[2,3-b]pyrazine]
5 | 0.0001 to 1 µM | 0.0001 to 1 µM | CC(C)(C)n1cnc2ccc(-c3c[nH]c4ncc(-c5cnn(C(F)F)c5)nc34)cc21 [P-255, 7-(3-tert-butylbenzimidazol-5-yl)-2-[1-(difluoromethyl)pyrazol-4-yl]-5H-pyrrolo[2,3-b]pyrazine]
6 | 0.0001 to 1 µM | 0.0001 to 1 µM | COc1ncccc1C#Cc1cnc2[nH]cc(-c3ccc4ncn(C(C)(C)C)c4c3)c2n1 [P-250, 7-(3-tert-butylbenzimidazol-5-yl)-2-[2-(2-methoxy-3-pyridyl)ethynyl]-5H-pyrrolo[2,3-b]pyrazine]
7 | 0.0001 to 1 µM | 0.0001 to 1 µM | COc1ncc(-c2cnc3[nH]cc(-c4ccc5ncn(C(C)(C)C)c5c4)c3n2)cn1 [P-263, 7-(3-tert-butylbenzimidazol-5-yl)-2-(2-methoxypyrimidin-5-yl)-5H-pyrrolo[2,3-b]pyrazine]
8 | 0.0001 to 1 µM | 0.0001 to 1 µM | CC(C)(C)n1cnc2ccc(-c3c[nH]c4ncc(-c5cnn(C(F)F)c5)cc34)cc21 [P-251, 1-tert-butyl-6-[5-[1-(difluoromethyl)pyrazol-4-yl]-1H-pyrrolo[2,3-b]pyridin-3-yl]benzimidazole]
9 | 0.0001 to 1 µM | 0.0001 to 1 µM | O=S1(=O)CCCN1c1cccc(-c2cnc3[nH]cc(-c4ccc5ncn(C6CCCNC6)c5c4)c3n2)c1 (stereo not shown) [P-273, 2-[3-[7-[3-(3-piperidyl)benzimidazol-5-yl]-5H-pyrrolo[2,3-b]pyrazin-2-yl]phenyl]-1,2-thiazolidine 1,1-dioxide]

Second part, the molecule before the results:

Row | Compound | IC50 [1] | IC50 [2]
10 | FC(F)(F)Oc1cccc(-c2cnc3[nH]cc(-c4ccc5ncn(C6CCCNC6)c5c4)c3n2)c1 (stereo not shown) [P-193, 7-[3-(3-piperidyl)benzimidazol-5-yl]-2-[3-(trifluoromethoxy)phenyl]-5H-pyrrolo[2,3-b]pyrazine] | 0.0001 to 1 µM | 0.0001 to 1 µM
11 | CC(C)(C)n1cnc2ccc(-c3c[nH]c4ncc(NC(=O)c5cccc(C#N)c5)cc34)cc21 [P-235, N-[3-(3-tert-butylbenzimidazol-5-yl)-1H-pyrrolo[2,3-b]pyridin-5-yl]-3-cyano-benzamide] | 0.0001 to 1 µM | 0.0001 to 1 µM
12 | CC(C)(C)n1cnc2ccc(-c3c[nH]c4ncc(-c5cccc(N6CCCCS6(=O)=O)c5)cc34)cc21 [P-221, 2-[3-[3-(3-tert-butylbenzimidazol-5-yl)-1H-pyrrolo[2,3-b]pyridin-5-yl]phenyl]thiazinane 1,1-dioxide] | 0.0001 to 1 µM | 0.0001 to 1 µM
13 | COc1cc(C(=O)Nc2cnc3[nH]cc(-c4ccc5ncn(C6CCCNC6)c5c4)c3c2)ccn1 (stereo not shown) [P-247, 2-methoxy-N-[3-[3-(3-piperidyl)benzimidazol-5-yl]-1H-pyrrolo[2,3-b]pyridin-5-yl]pyridine-4-carboxamide] | 0.0001 to 1 µM | 0.0001 to 1 µM
14 | CC(C)(C)n1cnc2ccc(-c3c[nH]c4ncc(-c5ccc(N6CCOCC6)cc5)nc34)cc21 [P-100, 4-[4-[7-(3-tert-butylbenzimidazol-5-yl)-5H-pyrrolo[2,3-b]pyrazin-2-yl]phenyl]morpholine] | 0.0001 to 1 µM | 0.0001 to 1 µM
15 | CC(C)(C)n1cnc2ccc(-c3c[nH]c4ncc(C(=O)Nc5cccc(C#N)c5)cc34)cc21 [P-218, 3-(3-tert-butylbenzimidazol-5-yl)-N-(3-cyanophenyl)-1H-pyrrolo[2,3-b]pyridine-5-carboxamide] | 0.0001 to 1 µM | 0.0001 to 1 µM
16 | COc1cnc2[nH]cc(-c3ccc4ncn(-c5ccc(F)cc5)c4c3)c2c1 [P-103, 1-(4-fluorophenyl)-6-(5-methoxy-1H-pyrrolo[2,3-b]pyridin-3-yl)benzimidazole] | 0.0001 to 1 µM | 0.0001 to 1 µM
17 | N#Cc1cccc(C#Cc2cnc3[nH]cc(-c4ccc5ncn(C6CCCNC6)c5c4)c3c2)c1 (stereo not shown) [P-243, 3-[2-[3-[3-(3-piperidyl)benzimidazol-5-yl]-1H-pyrrolo[2,3-b]pyridin-5-yl]ethynyl]benzonitrile] | 0.0001 to 1 µM | 0.0001 to 1 µM
18 | C(#Cc1cnc2[nH]cc(-c3ccc4ncn(C5CCCNC5)c4c3)c2n1)c1ccccc1 (stereo not shown) [P-248, 2-(2-phenylethynyl)-7-[3-(3-piperidyl)benzimidazol-5-yl]-5H-pyrrolo[2,3-b]pyrazine] | 0.0001 to 1 µM | 0.0001 to 1 µM
19 | CC(C)(C)n1cnc2ccc(-c3c[nH]c4ncc(-c5cccc(S(=O)(=O)N6CCCC6)c5)nc34)cc21 [P-229, 7-(3-tert-butylbenzimidazol-5-yl)-2-(3-pyrrolidin-1-ylsulfonylphenyl)-5H-pyrrolo[2,3-b]pyrazine] | 0.0001 to 1 µM | 0.0001 to 1 µM
20 | CC(C)(C)n1cnc2ccc(-c3c[nH]c4ncc(-c5ccc(F)c(C#N)c5)nc34)cc21 [P-230, 5-[7-(3-tert-butylbenzimidazol-5-yl)-5H-pyrrolo[2,3-b]pyrazin-2-yl]-2-fluoro-benzonitrile] | 0.0001 to 1 µM | 0.0001 to 1 µM
21 | N#Cc1cc(-c2cnc3[nH]cc(-c4ccc5ncn(C6CCCNC6)c5c4)c3n2)ccc1F (stereo not shown) [P-238, 2-fluoro-5-[7-[3-(3-piperidyl)benzimidazol-5-yl]-5H-pyrrolo[2,3-b]pyrazin-2-yl]benzonitrile] | 0.0001 to 1 µM | 0.0001 to 1 µM
22 | COc1cnc2[nH]cc(-c3cnc4ncn(Cc5cc(C)on5)c4c3)c2c1 [P-144, 3-[[6-(5-methoxy-1H-pyrrolo[2,3-b]pyridin-3-yl)imidazo[4,5-b]pyridin-1-yl]methyl]-5-methyl-isoxazole] | 0.0001 to 1 µM | 0.0001 to 1 µM
23 | c1cc(-c2cnc3[nH]cc(-c4ccc5ncn(C6CCCNC6)c5c4)c3c2)cc(N2CCOCC2)n1 (stereo not shown) [P-223, 4-[4-[3-[3-(3-piperidyl)benzimidazol-5-yl]-1H-pyrrolo[2,3-b]pyridin-5-yl]-2-pyridyl]morpholine] | 0.0001 to 1 µM | 0.0001 to 1 µM

Source: patent US10160755B2 (Plexxikon Inc., priority 2015, dated 2018)
